As usually defined, the melting point is the temperature of the solid-liquid transition.

SMILES strings stand for the structures. Where only a bound is given, the exact number is not on record here.

Compound `CC(c1ccnnc1)C(O)(Cn1cncn1)c1ccc(Cl)cc1Cl` (stereo not drawn) gave a melting point of 174 to 177 °C. The compound `Clc1c2c(nc3ccccc13)CCCNC2` showed a melting point of 127 °C. In turn, `CCCCCCCCCOc1ccnc(C(=O)O)c1` came in with a melting point of 89 to 92 °C. With `Cc1cc2c(cc1C)C(N)CC(C)(C)O2` (stereo not drawn), the melting point was above 270 °C. `Cc1oc(-c2ccccc2)nc1CCC(=O)c1ccc(CCC2OCCO2)cc1` yielded a melting point of 89 to 90 °C. `C=CC(O)(C(CCCCOc1ccccc1)n1cncn1)C(C)(C)C` (stereo not drawn) returned a melting point of 66 to 69 °C. `NC(=O)C1=CCNCC1`: the melting point lay within 104 to 106 °C.

In turn, `NC(=O)N(O)CC1CC(c2ccco2)C1` (stereo not drawn) gave a melting point of 89 to 100 °C.

With `CCOC(=O)C(=C(c1ccc(F)cc1)c1ccc(F)cc1)c1nnn(C)n1`, the melting point was 117 to 118 °C. For `Clc1ccc2ccc(/C=C/c3cccc(CN4CCc5cccc(CCc6nnn[nH]6)c54)c3)nc2c1`, the melting point lay within 141 to 144 °C. In turn, `COc1ccc(/C=C(\C#N)c2cccc(F)c2)cc1OC1CCCC1` had a melting point of 114 to 116 °C. The result for `Cc1cc(Cc2cnc(N)nc2N)cc(C)c1N` reads 258 to 260 °C. The result for `Cc1cc(Br)cnc1CCCCNc1nccc(=O)[nH]1` reads 109 to 113 °C; that for `O=C1N(Cc2ccc(Cl)cc2)c2ccccc2C1(O)c1ccoc1` (stereo not drawn), 128 to 130 °C; that for `Cn1nnc(CC[C@H]2CC[C@@H](c3ccc(F)cc3)N2S(=O)(=O)c2ccc(Cl)cc2)n1` (racemic), 122 °C. In turn, `Clc1cccc(Cl)c1Cc1c[nH]cn1` displayed a melting point of 142 to 145 °C. Compound `FC(=C(Cl)Cl)c1ccc(-c2ccccc2)s1` displayed a melting point of 67 to 68.5 °C. With `O=C1c2ccccc2CS(=O)(=O)N1CC(O)CN1CCOCC1` (stereo not drawn), the melting point was in the range of 175 to 177 °C. With `COc1ccc2c(c1)CCN1C[C@H]3CCCN[C@H]3C[C@@H]21`, the melting point lay within 125 to 127 °C.

The compound `COc1c(N2C[C@H]3[C@@H](F)CC[C@@]3(N)C2)c(F)cc2c(=O)c(C(=O)O)cn([C@@H]3C[C@@H]3F)c12` displayed a melting point of 117 to 119 °C. Consider `COc1ccc(C(C)C)cc1-c1cc(-c2nnnn2C2CCN(C(=O)CC(C)C)CC2)c(O)cc1O`, for which the melting point lay in the range of 220 to 224 °C. `O=c1c2ccc([N+](=O)[O-])cc2nc(CSc2ncnc3[nH]cnc23)n1-c1ccccc1Cl` registered a melting point of 218 °C. Take `Cc1cccc(C)c1NC(=O)CSc1cc(C(C)(C)C)c(O)c(C(C)(C)C)c1`: the melting point was found to be 138 °C. The result for `Cc1cccc(C(=O)Nc2ccc(N3CCN(Cc4cccc(C#N)c4)CC3)cc2)c1-c1ccc(C(F)(F)F)cc1` reads 192 °C; that for `CCCCCS(=O)(=O)NC(=O)OCc1ccc(OCCOC)cc1Oc1ncc(C(F)(F)F)cc1Cl`, 130 to 132 °C; that for `CCCCc1nc2cccc(C(=O)O)c2n1Cc1ccc(-c2ccccc2-c2nnnn2C(c2ccccc2)(c2ccccc2)c2ccccc2)cc1`, 120 to 123 °C. In turn, `CCOC(=O)C(CCO)=C(c1cccc(OC)c1)c1cccc(OC)c1` registered a melting point of 102 to 104 °C. In the case of `CN(Cc1cc(C(=O)OC(C)(C)C)ccc1[N+](=O)[O-])C(=O)OC(C)(C)C`, the melting point fell in the range of 56 to 58 °C. `CCCC1=C(Cl)C(=O)c2ccccc2C1=O` came in with a melting point of 71 to 73 °C. For `C=CC1CCCC(=O)N1Cc1ccccc1Cl` (stereo not drawn), the melting point fell in the range of 37 to 39 °C. With `COC(=O)CCCC(=O)N(C)CCc1c[nH]c2ccccc12`, the melting point lay in the range of 101 to 102 °C. The result for `COc1ccc(C=NNC(=N)N)cc1OC1CCCC1` reads 100 to 103 °C; that for `CCOC(=O)CNc1nc2ccccc2s1`, 91 to 97 °C; that for `O=c1oc(-c2ccccc2)cc(O)c1Sc1c(O)cc(-c2ccccc2)oc1=O`, above 240 °C. Compound `Cc1nc(C)c(-c2ccnc(Nc3ccc(N4CCCCC4)c(C)c3)n2)s1` yielded a melting point of 159 to 160 °C. As for `CN(C)C=Nc1sc(C=Nc2ccccc2)c(Cl)c1C#N`, the melting point is 174 °C. `CCOC1=NS(=O)(=O)N=C1N[C@@H]1c2cc(OC(F)(F)F)ccc2OC(C)(C)[C@H]1O`: the melting point is 192 to 194 °C. With `CCC1CCCCN(C(=O)C2Cc3ccccc3N2c2ccc(=O)n(C)n2)C1` (stereo not drawn) the figure was 90 to 95 °C.

`CSCC(=O)[C@H](Cc1ccccc1)NC(=O)[C@H](CC(C)C)NC(=O)OC(C)(C)C` displayed a melting point of 117 to 118 °C. `CCC(=O)c1cnc2c(c1)oc(=O)n2C` returned a melting point of 110 to 112 °C.

`CCOCCOc1ccc(C(C)C)c(NC(=O)CN2CCN(CCSc3nc4ccccc4o3)CC2)c1C(C)C` gave a melting point of 100 to 103 °C. For the compound `O=C(O)c1cnc2cccc(O)c2c1`, the melting point is above 260 °C. Compound `CCOC(=O)C1=C(C)Nc2ccnc(OC(C)C)c2C1c1cccc(C(F)(F)F)c1` (stereo not drawn) returned a melting point of 130 to 131 °C. Consider `Cc1c[nH]c(=O)c2ccccc12`, for which the melting point was 175 to 176 °C.

Take `CCOC(=O)c1cnc2n(c1=O)C(C)CCC2=NNC(=O)c1ccc2c(c1)OCO2` (stereo not drawn): the melting point fell in the range of 183 to 185 °C. The result for `CC(=O)N1CCN(c2ccc(-c3ccn[nH]3)cc2)CC1` reads 257 to 259 °C; that for `NS(=O)(=O)c1ccc(-c2cccn2-c2ccc(Cl)cc2)cc1`, 179 to 181 °C; that for `N=C(NO)c1ccc(-c2ccc(-c3ccc(C(=N)NO)o3)cc2)cc1`, 229 to 230 °C.

Compound `COc1cccc([C@H]2O[C@H](CC(=O)N[C@@H](CCSC)C(=O)O)C(=O)N(CC(C)(C)CO)c3ccc(Cl)cc32)c1OC` registered a melting point of 129 to 130 °C. As to `COC(=O)Nc1nc(OC)nc(OC)n1`, the melting point lay in the range of 118 to 122 °C. The result for `CCC(C)(C)C(=O)c1ccc(C(=O)O)cc1` reads 128 to 129 °C; that for `CCOP(=O)(CC(=O)Nc1cc2c(Nc3ccc(OCc4ccccn4)c(Cl)c3)ncnc2cn1)OCC`, 113 to 116 °C. In turn, `CC(Cc1ccc(OCCCO)cc1)NCC(O)c1cccc(C(F)(F)F)c1` (stereo not drawn) returned a melting point of 97 to 103 °C. In turn, `COc1ccccc1N1CCN(CC(O)COc2cccc(C(=O)C=CN(C)C)c2)CC1` (stereo not drawn) displayed a melting point of 131 °C. Compound `CCCCc1cn(CCC2CC2)c(=O)n1Cc1ccc(-c2ccccc2-c2nnn[nH]2)nc1` gave a melting point of 182 to 183 °C. `FC(F)=C(F)CCCCSc1nnc(-c2ccc(C(F)(F)F)cc2)o1`: the melting point was determined as 40 °C. `O=c1[nH]c(=O)n(CCCCCN2CCC(OC(c3ccccc3)c3ccccc3)CC2)c2ccccc12` yielded a melting point of 173 to 174 °C. The result for `COc1ccc(-n2cnc3ccc(-c4nnc(SCc5ccc(OC)c(C(F)(F)F)c5)o4)cc32)cc1` reads 163 to 164 °C; that for `Cc1ccc(-c2nc3ccc(C(=O)O)cn3c2CN(C)C(=O)CC(C)C)cc1`, 227 to 229 °C; that for `COc1cccc(CNC(=O)c2nc3cccc(OCCO)c3c(=O)[nH]2)c1`, 173 to 174 °C. Regarding `O=c1c(CCC(O)c2ccncc2)cc2cccnc2n1-c1cccc([N+](=O)[O-])c1` (stereo not drawn), the melting point is 235 to 236 °C.

Compound `CCCc1c(O)c(Cl)cc(C(C)=O)c1O` displayed a melting point of 96 °C. `O=C(O)c1ccc(CSc2nnc(-c3ccc4c(c3)CCO4)o2)cc1` displayed a melting point of 203 to 205 °C. As to `CC(=O)[Si](C)(C(C)(C)C)C(C)(C)C`, the melting point turned out to be 35 °C. For the compound `C#Cc1c2c3c(cccc3n1C)C1CC(NC(=O)N(CC)CC)CN(C)C1C2` (stereo not drawn), the melting point came out at 126 °C. With `CCOc1cc(N(CC)CC)ccc1C1(c2c(C)n(CC)c3ccccc23)OC(=O)c2ccccc21` (stereo not drawn), the melting point turned out to be 193 °C.

Compound `CCOC(=O)C(=CNc1cscc1OC)C(=O)OCC` returned a melting point of 100 to 102 °C. As to `COC[C@](C#N)(C(=O)NCC(C)(C)C)[C@H](c1ccccc1OC)c1cccc2ccccc12` (relative stereo), the melting point lay in the range of 185 to 186 °C. With `CN(C)NC(=NS(=O)(=O)c1ccc(Cl)cc1)N1CC(c2ccccc2)C(c2ccc(Cl)cc2)=N1` (single isomer, unassigned; (-)) the figure was 218 to 224 °C; with `Oc1ccccc1-c1ccc2nonc2c1`, 166 to 169 °C. As for `CCc1nc2ccc(N=C=S)cc2s1`, the melting point lay within 69 to 73 °C. For the compound `CC(=O)Nc1ccc2ncnc(Nc3cccc(Cl)c3)c2c1`, the melting point is 260 to 262 °C. Turning to `CC(=O)NC[C@H]1CN(c2ccc(N3CCC(C)(O)CC3)c(F)c2)C(=O)O1`, the melting point is 180 to 182 °C.

In turn, `CCn1nc2c(N)nc3ccccc3c2c1CC(C)(C)O` displayed a melting point of 223 to 225 °C. Compound `OCC1(CN(Cc2ccccc2)Cc2ccccc2)CCN(Cc2ccccc2)C1` (stereo not drawn) yielded a melting point of 65 to 67 °C. In turn, `CCOC(=O)CCc1ccc(OCc2ccc(OCc3nc(-c4ccccc4)oc3C)cc2)cc1OCC` yielded a melting point of 64 to 65 °C. Regarding `COc1nc(Br)nc(OC)n1`, the melting point is 118 to 120 °C. `Cc1cc(C)c(C(=O)c2ccccc2C)c(O)c1` had a melting point of 65 to 67 °C. Consider `CCC(=O)N(C)c1cccc(-c2ccc3nnc(N)n3n2)c1`, for which the melting point lay in the range of 190 to 191 °C. In turn, `COc1cccc(SC(CC(=O)c2ccccc2)c2cccc([N+](=O)[O-])c2)c1` (stereo not drawn) came in with a melting point of 105 °C.

For the compound `CCOC(=O)O[C@H](CCCc1ccc(OCc2nc(-c3ccccc3)sc2C)cc1)C(N)=O`, the melting point was in the range of 130 to 131 °C. In turn, `CN(C)c1nc(NCc2ccco2)nc(Nc2cccc(C(F)(F)F)c2)n1` came in with a melting point of 81 to 83 °C. Regarding `C[C@@H](N(CC(=O)O)C(=O)c1ccc(C(F)(F)F)cc1)[C@](O)(Cn1cncn1)c1ccc(Cl)cc1Cl` (relative stereo), the melting point is 140 to 142 °C.

Turning to `CCOC(=O)c1[nH]c(C)c(C)c1CC(C)C`, the melting point fell in the range of 109 to 111 °C. Take `CC(=O)Oc1cccc(C(=O)Nc2nc(S(C)(=O)=O)cs2)c1`: the melting point lay within 209 to 212 °C. The result for `CC=CN1C(=O)CN(c2ccccc2)C1=S` reads 74 °C; that for `O=P(O)(O)OC(Cn1cncn1)C(c1ccc(F)cc1F)n1cncn1` (stereo not drawn), 93 °C; that for `COc1ccc(S(=O)(=O)N(C)C)c(S(N)(=O)=O)c1`, 106 to 109 °C.

Values taken from a melting point compilation (Tetko et al.; mined from patent text by program, amines drawn as free bases though some values may be those of a salt).
